{
  "source": "paper PMC5503785",
  "about": "(Journal of clinical pharmacology, 2017)",
  "key": {"[1]": {"details": "cited from earlier work"}, "[2]": {"details": "PBPK simulations, cited from earlier work"}, "[3]": {"system": "PARP"}, "[4]": {"system": "PARP", "details": "phase 0 study, single dose of veliparib; cited from earlier work"}, "[5]": {"system": "CYP2D6", "details": "in vitro study; cited from earlier work"}, "[6]": {"details": "fixed in model; fraction renally excreted; cited from earlier work"}, "[7]": {"assay_type": "in vivo, human", "details": "for ω CLR/F (L·h^−1): between-subject variability; for increase in veliparib exposure: covariate model"}, "[8]": {"system": "PARP", "details": "cited from earlier work"}, "[9]": {"details": "analysis by Li et al, one-compartment model"}, "[10]": {"details": "population PK analysis by Salem et al, one-compartment model"}, "[11]": {"details": "previously reported, based on NCA"}, "[12]": {"details": "bootstrap median, 250 replicates"}},
  "note": "Where two headings read alike, the source gives them in different places.",
  "data": [
    {"smiles": "C[C@]1(c2nc3c(C(N)=O)cccc3[nH]2)CCCN1", "note": "[veliparib, 2-[(R)-2-methylpyrrolidin-2-yl]-1H-benzimidazole-4-carboxamide]", "values": [
      {"measurement": "CL/F", "setting": "[1]; [9]", "result": 13.3, "unit": "L/h"},
      {"measurement": "Vd/F", "setting": "[1]; [9]", "result": 126, "unit": "L"},
      {"measurement": "CL/F", "setting": "[1]; [10]", "result": 20.9, "unit": "L/h"},
      {"measurement": "Vd/F", "setting": "[1]; [10]", "result": 173, "unit": "L"},
      {"measurement": "CL/F", "setting": "[1]; [11]", "result": 18, "unit": "L/h"},
      {"measurement": "Vd/F", "setting": "[1]; [11]", "result": 145, "unit": "L"},
      {"measurement": "higher exposure versus extensive metabolizers", "setting": "[2]; CYP2D6 poor metabolizers (PM)", "result": "~ 20%"},
      {"measurement": "lower exposure versus extensive metabolizers", "setting": "[2]; CYP2D6 ultra-extensive metabolizers (UM)", "result": "~ 20%"},
      {"measurement": "Inhibition of PAR compared with pre-dose baseline", "setting": "[3]; 50/50 mg dose level b.i.d., PBMC", "result": "~ 50%"},
      {"measurement": "Inhibition of PARP compared with pre-dose baseline", "setting": "[3]; 500/500 mg dose level b.i.d., PBMC", "result": "~ 70%"},
      {"measurement": "IC50 for PAR reduction (Emax model, veliparib plasma concentration as driver)", "setting": "[3]; PBMC, estimated with low precision", "result": 0.03, "unit": "µg/mL"},
      {"measurement": "inhibition of PAR levels in PBMCs", "setting": "[3]; dose levels ranging from 50 to 500 mg", "result": "At least 50%"},
      {"measurement": "inhibition of PAR levels in PBMC", "setting": "[4]", "result": "Significant inhibition"},
      {"measurement": "share of overall veliparib metabolism accounted for by CYP2D6", "setting": "[5]", "result": "~ 72%"},
      {"measurement": "frenal", "setting": "[6]", "result": "0.7 (fix)"},
      {"measurement": "expected \"true\" fraction converted to M8", "setting": "[7]; 30% non-renal elimination * 72% CYP2D6 share", "result": 22, "unit": "%"},
      {"measurement": "accumulation on chronic dosing", "setting": "[7]; NCA approach, within dose range tested (50 to 500 mg b.i.d.)", "result": "Negligible accumulation"},
      {"measurement": "ω CLR/F (L·h^−1)", "setting": "[7]; bootstrap median", "result": 34.7, "unit": "%"},
      {"measurement": "ω CLR/F (L·h^−1)", "setting": "[7]; final model estimate", "result": 34.7, "unit": "%"},
      {"measurement": "CL/F", "setting": "[7]; [12]", "result": 17.3, "unit": "L/h"},
      {"measurement": "Ka", "setting": "[7]; [12]", "result": 2.02, "unit": "h⁻¹"},
      {"measurement": "LBM effect on Vc/F, power_LBM", "setting": "[7]; [12]", "result": 1.21},
      {"measurement": "Q/F", "setting": "[7]; [12]", "result": 17.9, "unit": "L/h"},
      {"measurement": "Vc/F", "setting": "[7]; [12]", "result": 99.1, "unit": "L"},
      {"measurement": "Vp/F", "setting": "[7]; [12]", "result": 47.5, "unit": "L"},
      {"measurement": "tlag", "setting": "[7]; [12]", "result": 0.270, "unit": "h"},
      {"measurement": "increase in veliparib exposure", "setting": "[7]; mild renal function impairment (~25% decrease in CLCR)", "result": "~ 10%"},
      {"measurement": "increase in veliparib exposure", "setting": "[7]; moderate renal function impairment (~50% decrease in CLCR)", "result": "~ 20%"},
      {"measurement": "dose proportionality", "setting": "[7]; dose level from 50 to 500 mg", "result": "supported"},
      {"measurement": "Q/F", "setting": "[7]; final model estimate", "result": 17.9, "unit": "L/h"},
      {"measurement": "tlag", "setting": "[7]; final model estimate", "result": 0.272, "unit": "h"},
      {"measurement": "LBM effect on Vc/F, power_LBM", "setting": "[7]; final model estimate, covariate exponent", "result": 1.21},
      {"measurement": "Vc/F (central volume of distribution)", "setting": "[7]; final model estimate, typical subject LBM 48 kg", "result": 99.2, "unit": "L"},
      {"measurement": "CL/F (total clearance, CLR/F + CLNR/F)", "setting": "[7]; final model estimate, typical subject LBM 48 kg, CLCR 95 mL/min", "result": 17.3, "unit": "L/h"},
      {"measurement": "Ka", "setting": "[7]; final population PK model estimate, oral veliparib", "result": 2.02, "unit": "h⁻¹"},
      {"measurement": "fm", "setting": "[7]; fixed in model, fraction metabolized to M8 assumed as 1−frenal", "result": "0.3 (fix)"},
      {"measurement": "Vd/F", "setting": "[7]; human, plasma, oral, Vd/F (=Vc/F+ Vp/F), final model, standardized to 48 kg LBM and 95 mL/min CLCR", "result": 147, "unit": "L"},
      {"measurement": "contribution of CYP2D6 metabolism to veliparib total clearance", "setting": "[7]; worked out from non-renal fraction and CYP2D6 share", "result": "~ 22%"}
    ]},
    {"smiles": "CC1(c2nc3c(C(N)=O)cccc3[nH]2)CCC(=O)N1", "note": "(centres unmarked) [M8]", "values": [
      {"measurement": "potency compared to veliparib (fold less potent)", "setting": "[8]", "result": "approximately 5 fold"},
      {"measurement": "CLmet", "setting": "[7]; [12]", "result": 22.7, "unit": "L/h"},
      {"measurement": "Qmet", "setting": "[7]; [12]", "result": 29.0, "unit": "L/h"},
      {"measurement": "Vc_met", "setting": "[7]; [12]", "result": 23.5, "unit": "L"},
      {"measurement": "Vp_met", "setting": "[7]; [12]", "result": 51.3, "unit": "L"},
      {"measurement": "CLmet", "setting": "[7]; final model estimate", "result": 22.8, "unit": "L/h"},
      {"measurement": "Qmet", "setting": "[7]; final model estimate", "result": 29.0, "unit": "L/h"},
      {"measurement": "Vc_met", "setting": "[7]; final model estimate, metabolite central volume", "result": 23.6, "unit": "L"},
      {"measurement": "Vp_met", "setting": "[7]; final model estimate, metabolite peripheral volume", "result": 51.4, "unit": "L"}
    ]}
  ]
}
